Experimental findings from patent publication US8772300B2, “Phenyl or pyridinyl-ethynyl derivatives” (Hoffmann-La Roche Inc., priority 2011, dated 2014) are described below.

The test addresses T1, human mGlu5a receptor (Homo sapiens, UniProt P41594).
T1 construct: expressed in transfected cells
In words: Intracellular Ca2+ mobilization assay (mGlu5 PAM). Type of test: cell-based. The note with it: for Emax: HEK293, maximal response in % of the maximal stimulatory effect obtained with saturating concentrations of L-glutamate, HEK-293 human mGlu5a cells, read-out: Eff. (%); for EC50: HEK-293 cells stably transfected with human mGlu5a receptor, L-glutamate added at EC20 (typically around 80 μM) after 10-30 min pre-incubation with test compound, read-out: EC50 (nM) mGlu5PAM. The method, then: A monoclonal HEK-293 cell line stably transfected with a cDNA encoding for the human mGlu5a receptor was generated; for the work with mGlu5 Positive Allosteric Modulators (PAMs), a cell line with low receptor expression levels and low constitutive receptor activity was selected to allow the differentiation of agonistic versus PAM activity. Cells were cultured according to standard protocols (Freshney, 2000) in Dulbecco's Modified Eagle Medium with high glucose supplemented with 1 mM glutamine, 10% (vol/vol) heat-inactivated bovine calf serum, Penicillin/Streptomycin, 50 μg/ml hygromycin and 15 μg/ml blasticidin (all cell culture reagents and antibiotics from Invitrogen, Basel, Switzerland).
About 24 hrs before an experiment, 5×10^4 cells/well were seeded in poly-D-lysine coated, black/clear-bottomed 96-well plates. The cells were loaded with 2.5 μM Fluo-4AM in loading buffer (1×HBSS, 20 mM HEPES) for 1 hr at 37° C. and washed five times with loading buffer. The cells were transferred into a Functional Drug Screening System 7000 (Hamamatsu, Paris, France), and 11 half logarithmic serial dilutions of test compound at 37° C. were added and the cells were incubated for 10-30 min with on-line recording of fluorescence. Following this pre-incubation step, the agonist L-glutamate was added to the cells at a concentration corresponding to EC20 (typically around 80 μM) with on-line recording of fluorescence; in order to account for day-to-day variations in the responsiveness of cells, the EC20 of glutamate was determined immediately ahead of each experiment by recording of a full dose-response curve of glutamate.
Responses were measured as peak increase in fluorescence minus basal (i.e. fluorescence without addition of L-glutamate), normalized to the maximal stimulatory effect obtained with saturating concentrations of L-glutamate. Graphs were plotted with the % maximal stimulatory using XLfit, a curve fitting program that iteratively plots the data using Levenburg Marquardt algorithm. The single site competition analysis equation used was y=A+((B−A)/(1+((x/C)D))), where y is the % maximal stimulatory effect, A is the minimum y, B is the maximum y, C is the EC50, x is the log 10 of the concentration of the competing compound and D is the slope of the curve (the Hill Coefficient). From these curves the EC50 (concentration at which half maximal stimulation was achieved), the Hill coefficient as well as the maximal response in % of the maximal stimulatory effect obtained with saturating concentrations of L-glutamate were calculated.
A depression of the signal observed after addition of the EC20 concentration of L-glutamate was indicative of an inhibitory activity of the test compound.
On the technique in general: Calcium flux is commonly read through the fluorescence of an indicator in the cells.

T1 sequence (P41594 21-1180 isoform P41594-2 limits assumed): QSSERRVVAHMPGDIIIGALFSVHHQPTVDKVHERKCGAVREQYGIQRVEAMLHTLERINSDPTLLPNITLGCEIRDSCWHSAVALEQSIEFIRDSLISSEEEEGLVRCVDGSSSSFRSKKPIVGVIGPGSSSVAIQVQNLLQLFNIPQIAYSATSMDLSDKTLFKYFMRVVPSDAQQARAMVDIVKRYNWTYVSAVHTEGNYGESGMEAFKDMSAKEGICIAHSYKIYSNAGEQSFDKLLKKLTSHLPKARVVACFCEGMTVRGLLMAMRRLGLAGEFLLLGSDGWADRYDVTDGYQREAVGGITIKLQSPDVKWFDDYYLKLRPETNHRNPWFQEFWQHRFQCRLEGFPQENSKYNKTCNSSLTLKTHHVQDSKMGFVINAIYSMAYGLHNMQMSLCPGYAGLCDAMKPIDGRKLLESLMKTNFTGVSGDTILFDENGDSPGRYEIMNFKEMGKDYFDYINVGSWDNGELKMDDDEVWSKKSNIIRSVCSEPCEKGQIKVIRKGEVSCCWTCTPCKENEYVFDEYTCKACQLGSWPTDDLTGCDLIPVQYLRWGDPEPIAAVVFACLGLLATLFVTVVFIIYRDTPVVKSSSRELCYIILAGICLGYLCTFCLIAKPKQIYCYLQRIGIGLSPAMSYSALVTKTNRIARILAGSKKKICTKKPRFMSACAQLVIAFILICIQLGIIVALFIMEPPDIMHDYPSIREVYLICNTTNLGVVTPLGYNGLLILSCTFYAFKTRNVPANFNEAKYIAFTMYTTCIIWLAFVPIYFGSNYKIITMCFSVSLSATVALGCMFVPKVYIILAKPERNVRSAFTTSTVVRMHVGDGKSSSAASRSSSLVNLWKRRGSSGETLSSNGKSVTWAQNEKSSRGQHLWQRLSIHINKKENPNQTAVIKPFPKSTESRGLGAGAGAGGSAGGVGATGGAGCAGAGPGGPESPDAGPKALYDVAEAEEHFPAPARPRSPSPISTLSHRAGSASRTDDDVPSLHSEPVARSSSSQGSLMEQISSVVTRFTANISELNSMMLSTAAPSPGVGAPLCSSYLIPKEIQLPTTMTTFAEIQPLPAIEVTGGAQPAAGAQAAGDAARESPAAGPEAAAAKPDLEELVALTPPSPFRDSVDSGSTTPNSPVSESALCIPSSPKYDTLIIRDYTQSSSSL

For orientation: EC50 means the concentration at which the effect is half-maximal. For `CC(C)(C)NC(=O)c1ncc(C#Cc2ccc(F)cc2)cn1` [Example 9, 5-(4-Fluoro-phenylethynyl)-pyrimidine-2-carboxylic Acid tert-butylamide], the Emax amounted to 90% and the EC50 was determined as 127 nM.
Turning to `CC1(C)CC(O)CCN1C(=O)c1ncc(C#Cc2cccc(F)c2)cc1F` (racemic) [Example 67, (RS)-[3-Fluoro-5-(3-fluoro-phenylethynyl)-pyridin-2-yl]-(4-hydroxy-2,2-dimethyl-piperidin-1-yl)-methanone], the Emax is 57% and the 50% effective concentration (EC50) amounted to 54 nM.
For `CC(C)(NC(=O)c1ncc(C#Cc2ccnc(Cl)c2)cn1)C(F)(F)F` [Example 58, 5-(2-Chloro-pyridin-4-ylethynyl)-pyrimidine-2-carboxylic Acid (2,2,2-trifluoro-1,1-dimethyl-ethyl)-amide] the same measures were 30% and 57 nM.
Regarding `CC1(C)CC(O)CCN1C(=O)c1ccc(C#Cc2cccc(F)c2)cn1` (racemic) [Example 63, (RS)-[5-(3-Fluoro-phenylethynyl)-pyridin-2-yl]-(4-hydroxy-2,2-dimethyl-piperidin-1-yl)-methanone], the Emax was determined as 45% and the EC50 worked out at 40 nM.
Consider `CN(C(=O)c1ccc(C#Cc2cncc(Cl)c2)cn1)C1(C(F)(F)F)CC1` [Example 53, 5-(5-Chloro-pyridin-3-ylethynyl)-pyridine-2-carboxylic Acid methyl-(1-trifluoromethyl-cyclopropyl)-amide], for which the Emax turned out to be 57% and the EC50 came to 44 nM.
Consider `CC1(C)CC(O)CCN1C(=O)c1ncc(C#Cc2cc(F)ccc2F)cc1F` (racemic) [Example 68, (RS)-[5-(2,5-Difluoro-phenylethynyl)-3-fluoro-pyridin-2-yl]-(4-hydroxy-2,2-dimethyl-piperidin-1-yl)-methanone], for which the Emax came out at 54% and the EC50 amounted to 46 nM.
For `CN(C(=O)c1ccc(C#Cc2cncc(Cl)c2)cn1)C(C)(C)C` [Example 7, 5-(5-Chloro-pyridin-3-ylethynyl)-pyridine-2-carboxylic Acid tert-butyl-methyl-amide] the same measures were 33% and 17 nM.
Take `CN(C(=O)c1ccc(C#Cc2cccc(F)c2)cn1)C1(C)CC1` [Example 31, 5-(3-Fluoro-phenylethynyl)-pyridine-2-carboxylic Acid methyl-(1-methyl-cyclopropyl)-amide]: the Emax was 43% and the concentration for a half-maximal effect (EC50) was determined as 17 nM.
As to `O=C(NC1COC1)c1ccc(C#Cc2cccc(F)c2)cn1` [Example 26, 5-(3-Fluoro-phenylethynyl)-pyridine-2-carboxylic Acid oxetan-3-ylamide], the Emax stood at 80% and the concentration for a half-maximal effect (EC50) was 43 nM.
For `Cc1cc(C#Cc2cncc(Cl)c2)cnc1C(=O)N(C)C(C)(C)C` [Example 20, 5-(5-Chloro-pyridin-3-ylethynyl)-3-methyl-pyridine-2-carboxylic Acid tert-butyl-methyl-amide] the same measures were 26% and 102 nM.
For `CC(NC(=O)c1ccc(C#Cc2ccnc(Cl)c2)cn1)C(F)(F)F` (racemic) [Example 57, (RS)-5-(2-Chloro-pyridin-4-ylethynyl)-pyridine-2-carboxylic Acid (2,2,2-trifluoro-1-methyl-ethyl)-amide] the same measures were 42% and 22 nM.
Taken in the same sequence, the figures for `CC(N(C)C(=O)c1ncc(C#Cc2ccccc2)cc1F)C(F)(F)F` (racemic) [Example 51, (RS)-3-Fluoro-5-phenylethynyl-pyridine-2-carboxylic Acid methyl-(2,2,2-trifluoro-1-methyl-ethyl)-amide] were 69% and 66 nM.
